Columns and labels:
OR13a = tested on: OR13a; parameters: method as in earlier work; conditions: DoOR database value; ref DoOR; cited from earlier work
Drosophila OR10a = molecular target: T1, Drosophila OR10a (Drosophila melanogaster, UniProt Q9VYZ1); test: Calcium ion fluorescence (GCaMP6) assay, OR10a stable HEK293 cell line; assay type: cell-based; conditions: 50 µM, OR10a clone G5, single plate 2019.12.05
T1 construct: expressed in transfected cells
T1 sequence (Q9VYZ1 1-406): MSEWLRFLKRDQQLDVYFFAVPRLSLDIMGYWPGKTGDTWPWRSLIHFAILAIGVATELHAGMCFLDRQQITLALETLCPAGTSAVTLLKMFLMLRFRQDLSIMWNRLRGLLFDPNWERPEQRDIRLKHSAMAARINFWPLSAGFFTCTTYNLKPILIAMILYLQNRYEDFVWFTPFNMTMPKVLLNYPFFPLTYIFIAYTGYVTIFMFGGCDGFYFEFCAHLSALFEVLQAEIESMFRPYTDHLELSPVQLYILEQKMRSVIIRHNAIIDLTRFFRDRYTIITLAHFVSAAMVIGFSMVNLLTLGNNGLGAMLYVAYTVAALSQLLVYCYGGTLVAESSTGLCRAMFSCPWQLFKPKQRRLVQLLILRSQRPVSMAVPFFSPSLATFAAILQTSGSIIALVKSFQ
T1 sequence (Q9VNB5 1-486 partner): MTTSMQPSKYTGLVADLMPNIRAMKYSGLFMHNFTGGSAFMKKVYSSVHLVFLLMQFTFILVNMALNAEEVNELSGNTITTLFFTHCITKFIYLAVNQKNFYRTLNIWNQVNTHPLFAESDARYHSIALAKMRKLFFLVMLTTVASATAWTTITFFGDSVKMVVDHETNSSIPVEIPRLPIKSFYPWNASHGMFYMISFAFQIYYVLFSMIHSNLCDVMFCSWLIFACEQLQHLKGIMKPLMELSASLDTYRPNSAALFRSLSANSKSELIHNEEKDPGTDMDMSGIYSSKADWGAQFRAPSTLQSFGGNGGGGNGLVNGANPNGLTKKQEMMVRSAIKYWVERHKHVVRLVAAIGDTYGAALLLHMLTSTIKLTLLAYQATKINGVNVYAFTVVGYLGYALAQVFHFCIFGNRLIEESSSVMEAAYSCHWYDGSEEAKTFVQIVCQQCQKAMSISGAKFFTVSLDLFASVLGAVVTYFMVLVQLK
Method: (§1) These VUAA1 normalized ∆F values were used to compare the different receptors and ligands.
(§2) The concentration-dependent effect of the reference ligands on their cognate cell lines was examined in more detail. Twelve different ligand concentrations were measured on each cell line in an overall 0.01 μM to 100 μM concentration range with 5 repetitions with three technical replicates each time.
(§3) Twelve thousand to 18,000 cells were plated into each well of a black wall, transparent bottom 384-well microplate (Greiner) 48 h or 72 h before the measurements and were simultaneously treated with 1 μg/mL doxycycline. […] The plate has 24 columns, thus we could record responses in up to eight different cell lines in each plate. On the day of the experiment, the growth medium was replaced with 20 µL assay buffer/well (140 mM NaCl, 5 mM KCl, 2 mM CaCl2, 1 mM MgCl2, 5 mM HEPES-Na, 20 mM glucose, pH 7.3, 340 mOsm). […] Baseline fluorescence (F0) was recorded for 5 s, after which 7 µL VOC buffer (140 mM NaCl, 5 mM KCl, 2 mM CaCl2, 1 mM MgCl2, 5 mM HEPES-Na, 31 mM glucose, 0.1% DMSO, pH 7.3, 340 mOsm) was injected into each well in one row and the fluorescence response was recorded for an additional 30 s, at a rate of one read/sec. VOC solutions (VOC buffer with 4× concentration of the final measured VOC concentration, 9 µL/well was injected) were measured on the same wells in a second round with the same protocol. Each individual concentration of a specific VOC sample was recorded in three wells for the same cell line on the same microplate. The raw data were exported in xls file format, F0 and FMAX values, and the fluorescence intensity changes (∆F) were calculated in Excel (Microsoft) (Supplementary file Data summary.xlsx) using the following equation: ΔF=FMAX-F0/F0 (see also Fig. 1C). On each plate, we recorded the response of each cell line to 50 µM VUAA1. The average of these ∆F values of each cell line were used to calculate the VUAA1-normalized values for the rest of the plate, by dividing VOC response ∆F values by the average VUAA1 response ∆F value of the corresponding OR cell line. Each VOC-OR combination was measured three times as technical replicates. […] The average of these replicates were used as one ∆F and VUAA1-normalized ∆F in the following analysis.
(§4) In the next rows we tested the reference VOCs (or other VOCs known to activate the corresponding cell lines), in order to test if all cell lines are responsive. The remaining rows were used to test VOCs with unknown effect.
(§5) The recorded FMAX, F0, ∆F, VUAA1-normalized ∆F values, as well as the OR name, the name of the tested sample, and the final concentration for each well were copied into supplementary file Data summary.xlsx, that was used to summarize all the plates recorded. Here, the averages of the measurements were calculated for each receptor-VOC-concentration combination.

[1] = tested on: T2, OR cell lines (OR + ORCO); test: Maximum fluorescence change of the OR cell lines, long term stability testing / VUAA1 check; assay type: cell-based, Drosophila melanogaster
T2 construct: expressed in transfected cells
Method: as §1
Twelve thousand to 18,000 cells were plated into each well of a black wall, transparent bottom 384-well microplate (Greiner) 48 h or 72 h before the measurements and were simultaneously treated with 1 μg/mL doxycycline. […] The plate has 24 columns, thus we could record responses in up to eight different cell lines in each plate. On the day of the experiment, the growth medium was replaced with 20 µL assay buffer/well (140 mM NaCl, 5 mM KCl, 2 mM CaCl2, 1 mM MgCl2, 5 mM HEPES-Na, 20 mM glucose, pH 7.3, 340 mOsm). […] Baseline fluorescence (F0) was recorded for 5 s, after which 7 µL VOC buffer (140 mM NaCl, 5 mM KCl, 2 mM CaCl2, 1 mM MgCl2, 5 mM HEPES-Na, 31 mM glucose, 0.1% DMSO, pH 7.3, 340 mOsm) was injected into each well in one row and the fluorescence response was recorded for an additional 30 s, at a rate of one read/sec. VOC solutions (VOC buffer with 4× concentration of the final measured VOC concentration, 9 µL/well was injected) were measured on the same wells in a second round with the same protocol. Each individual concentration of a specific VOC sample was recorded in three wells for the same cell line on the same microplate. […] On each plate, we recorded the response of each cell line to 50 µM VUAA1. […] Each VOC-OR combination was measured three times as technical replicates. […]

ORCO = molecular target: T3, ORCO (Drosophila melanogaster, UniProt Q9VNB5); test: Origin of Ca2+ test, (GCaMP6-GSG)ORCO cell line; assay type: cell-based; conditions: assay buffer lacking Ca2+, and lacking Ca2+ and containing EGTA
T3 sequence (Q9VNB5 1-486): T1 sequence (Q9VNB5 1-486 partner)
Description: We tested for the origin of the Ca^2+ ions on two cell lines, OR47a and (GCaMP6-GSG)ORCO, with assay buffer lacking Ca^2+ and assay buffer lacking Ca^2+ and containing EGTA.

Drosophila OR47a = molecular target: T4, Drosophila OR47a (Drosophila melanogaster, UniProt P81921); test: Calcium ion fluorescence (GCaMP6) assay, OR47a stable HEK293 cell line; assay type: cell-based; conditions: OR47a cell line; assay buffer lacking Ca2+, and lacking Ca2+ and containing EGTA
T4 construct: expressed in transfected cells
T4 sequence (P81921 1-385): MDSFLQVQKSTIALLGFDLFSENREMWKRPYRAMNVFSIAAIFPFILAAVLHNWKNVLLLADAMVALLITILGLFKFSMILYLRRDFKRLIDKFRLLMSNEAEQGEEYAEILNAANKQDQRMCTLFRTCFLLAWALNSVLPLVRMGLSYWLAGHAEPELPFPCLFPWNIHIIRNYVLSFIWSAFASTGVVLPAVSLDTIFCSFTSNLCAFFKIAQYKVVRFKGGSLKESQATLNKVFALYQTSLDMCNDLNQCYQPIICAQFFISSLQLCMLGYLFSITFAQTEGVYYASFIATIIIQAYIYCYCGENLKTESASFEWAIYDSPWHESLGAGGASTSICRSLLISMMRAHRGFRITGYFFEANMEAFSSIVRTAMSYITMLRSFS
T4 sequence (Q9VNB5 1-486 partner): T1 sequence (Q9VNB5 1-486 partner)
Method: as §1, §2, §3, §4, §5

Structure (SMILES) | OR13a DoOR response (OR13a) | DF norm, all technical replicates (Drosophila OR10a) | DF norm, outlier technical replicates removed (Drosophila OR10a) | DF, outlier technical replicates removed (Drosophila OR10a) | DF, all technical replicates (Drosophila OR10a; xc+0.1%DMSO) | peaks of fluorescence intensity change ([1]; ORCO agonist VUAA1, highest over OR cell lines) | response of the cell lines to VUAA1 ([1]; all cell lines, including the four non-responding OR lines) | response in assay buffer lacking Ca2+ (ORCO) | response in assay buffer lacking Ca2+ (Drosophila OR47a)
CC(=O)CCC=C(C)C [6-methyl-5-hepten-2-one] | 0.44 |  |  |  |  |  |  |  | 
CCc1ccc(NC(=O)CSc2nnc(-c3cccnc3)n2CC)cc1 [VUAA1, reference compound] |  | 1 | 1 | 1.743 | 1.743 | ≤ 462% | responded | Neither of the cell lines responded | Neither of the cell lines responded

From publication PMC10709440, “High-throughput ligand profile characterization in novel cell lines expressing seven heterologous insect olfactory receptors for the detection of volatile plant biomarkers” (Scientific Reports, 2023)
